Assay results taken from patent publication US20250205344A1, “2,4-DIOXOTETRAHYDROPYRIMIDINYL DERATIVES AS DEGRONS IN PROTACS” (GLAXOSMITHKLINE INTELLECTUAL PROPERTY DEVELOPMENT LIMITED, priority 2022, published 2025).
Structures can show the parent of a compound that is named as a salt.

Target: T1, Androgen Receptor (Homo sapiens, UniProt P10275, T878A)
T1 construct: the AR gene was modified, using CRISPR/Cas9 editing, so the expressed AR protein included an 11 amino acid HiBiT tag; endogenous in cells; host or cells: clonal LnCaP-derived line, AR gene edited by CRISPR/Cas9
T1 sequence (P10275 whole entry T878A): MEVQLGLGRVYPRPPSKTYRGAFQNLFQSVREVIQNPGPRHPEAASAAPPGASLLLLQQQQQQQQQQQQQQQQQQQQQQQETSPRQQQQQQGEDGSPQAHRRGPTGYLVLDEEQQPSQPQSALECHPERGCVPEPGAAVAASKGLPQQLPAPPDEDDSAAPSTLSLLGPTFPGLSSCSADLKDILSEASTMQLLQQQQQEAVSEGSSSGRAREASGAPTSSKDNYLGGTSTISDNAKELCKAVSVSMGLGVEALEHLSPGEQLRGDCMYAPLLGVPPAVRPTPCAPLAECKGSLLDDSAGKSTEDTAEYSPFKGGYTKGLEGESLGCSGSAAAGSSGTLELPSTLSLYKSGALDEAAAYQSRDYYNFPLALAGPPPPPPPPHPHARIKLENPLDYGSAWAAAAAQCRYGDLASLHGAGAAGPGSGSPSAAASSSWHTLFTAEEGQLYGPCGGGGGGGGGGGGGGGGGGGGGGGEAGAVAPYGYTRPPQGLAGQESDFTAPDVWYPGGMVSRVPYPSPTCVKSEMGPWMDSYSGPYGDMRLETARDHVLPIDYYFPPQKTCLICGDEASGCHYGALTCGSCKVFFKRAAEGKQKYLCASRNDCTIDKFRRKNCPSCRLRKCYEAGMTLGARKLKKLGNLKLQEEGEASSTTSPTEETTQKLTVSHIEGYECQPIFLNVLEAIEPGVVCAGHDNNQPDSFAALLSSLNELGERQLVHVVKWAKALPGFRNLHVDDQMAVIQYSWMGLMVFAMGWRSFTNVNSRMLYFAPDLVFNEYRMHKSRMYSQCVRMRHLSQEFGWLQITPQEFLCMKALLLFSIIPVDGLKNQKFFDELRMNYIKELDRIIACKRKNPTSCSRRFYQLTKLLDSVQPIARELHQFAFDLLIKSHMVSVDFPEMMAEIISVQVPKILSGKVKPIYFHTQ
T1 sequence (Q96SW2 whole entry partner): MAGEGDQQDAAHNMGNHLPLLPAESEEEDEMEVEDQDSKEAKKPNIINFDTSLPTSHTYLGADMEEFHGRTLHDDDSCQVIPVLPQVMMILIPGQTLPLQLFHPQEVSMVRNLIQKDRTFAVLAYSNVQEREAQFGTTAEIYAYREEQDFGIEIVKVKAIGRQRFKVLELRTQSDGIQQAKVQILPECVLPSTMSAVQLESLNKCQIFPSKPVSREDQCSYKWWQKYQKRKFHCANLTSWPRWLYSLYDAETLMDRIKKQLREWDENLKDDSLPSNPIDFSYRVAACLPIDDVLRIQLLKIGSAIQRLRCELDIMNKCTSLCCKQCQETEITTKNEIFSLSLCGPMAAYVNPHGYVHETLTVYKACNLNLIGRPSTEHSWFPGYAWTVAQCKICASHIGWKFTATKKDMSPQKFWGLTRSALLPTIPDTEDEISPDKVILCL
T1 sequence (Q16531 whole entry partner): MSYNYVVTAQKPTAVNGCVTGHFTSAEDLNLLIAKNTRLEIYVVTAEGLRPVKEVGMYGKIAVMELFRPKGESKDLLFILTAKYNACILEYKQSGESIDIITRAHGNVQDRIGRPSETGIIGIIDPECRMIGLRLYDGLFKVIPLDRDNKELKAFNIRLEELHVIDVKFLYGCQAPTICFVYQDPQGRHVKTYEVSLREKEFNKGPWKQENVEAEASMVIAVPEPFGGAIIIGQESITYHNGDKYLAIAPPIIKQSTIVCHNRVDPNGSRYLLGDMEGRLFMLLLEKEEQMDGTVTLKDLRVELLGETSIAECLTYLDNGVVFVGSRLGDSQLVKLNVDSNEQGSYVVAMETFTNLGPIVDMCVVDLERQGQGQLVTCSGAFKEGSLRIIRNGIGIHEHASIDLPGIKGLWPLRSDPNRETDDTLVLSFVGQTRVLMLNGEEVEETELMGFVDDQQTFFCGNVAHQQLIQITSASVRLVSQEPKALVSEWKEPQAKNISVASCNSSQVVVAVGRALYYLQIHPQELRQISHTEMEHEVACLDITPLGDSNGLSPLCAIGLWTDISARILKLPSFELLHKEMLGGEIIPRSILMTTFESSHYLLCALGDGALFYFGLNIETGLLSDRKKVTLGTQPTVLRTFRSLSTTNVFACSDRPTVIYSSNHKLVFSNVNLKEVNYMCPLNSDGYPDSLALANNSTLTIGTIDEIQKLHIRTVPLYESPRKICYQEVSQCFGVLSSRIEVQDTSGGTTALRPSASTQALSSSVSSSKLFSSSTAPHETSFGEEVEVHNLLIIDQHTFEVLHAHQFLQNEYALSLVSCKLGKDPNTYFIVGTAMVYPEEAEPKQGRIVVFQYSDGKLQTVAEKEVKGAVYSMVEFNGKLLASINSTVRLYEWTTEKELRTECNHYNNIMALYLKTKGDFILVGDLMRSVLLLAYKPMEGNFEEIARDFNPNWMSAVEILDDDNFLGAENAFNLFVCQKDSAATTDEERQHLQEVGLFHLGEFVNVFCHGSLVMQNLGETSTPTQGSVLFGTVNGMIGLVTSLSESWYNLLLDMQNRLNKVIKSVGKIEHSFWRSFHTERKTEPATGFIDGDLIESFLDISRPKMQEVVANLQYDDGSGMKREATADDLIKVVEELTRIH
Assay: Androgen Receptor Degradation Assay (Nano-Glo HiBiT)
Format: cell-based
Conditions: LNCaP, 18 h, HiBiT-tagged AR in human LnCaP cells, read-out: mean asymptote max
Procedure, shortened: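 LnCaP cells with CRISPR-knocked-in N-terminal HiBiT-tagged AR (10,000/well) treated 18 h at 37 °C with PROTACs over 11 threefold concentrations; lytic HiBiT luminescence normalised to DMSO (0%) and cell-free (100%) controls. Relative DC50 = 4-parameter fit inflection; absolute DC50 = 50% degradation interpolation; Dmax = maximum observed degradation.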

Row | Compound | Dmax [%]
1 | C[C@@H]1CN(c2ccc(C#N)c(Cl)c2)[C@@H](C)CN1C(=O)Nc1ccc(N2CCC(CCN3CCC(n4ccc5c(N6CCC(=O)NC6=O)cccc54)CC3)CC2)nc1 [EAR117, (2R,5S)-4-(3-Chloro-4-cyanopheny)-N-(6-(4-(2-(4-(4-(2,4-dioxotetrahydropyrimidin-1(2H)-yl)-1H-indol-1-yl)piperidin-1-yl)ethyl)piperidin-1-yl)pyridin-3-yl)-2,5-dimethylpiperazine-1-carboxamide] | ≥ 50
2 | N#Cc1ccc(O[C@H]2CC[C@H](NC(=O)c3cnc(N4CCC(CN5CCC(n6ccc7c(N8CCC(=O)NC8=O)ncnc76)CC5)CC4)nc3)CC2)cc1Cl [EAR200, N-((1r,4r)-4-(3-Chloro-4-cyanophenoxy)cyclohexyl)-2-(4-((4-(4-(2,4-dioxotetrahydropyrimidin-1(2H)-yl)-7H-pyrrolo[2,3-d]pyrimidin-7-yl)piperidin-1-yl)methyl)piperidin-1-yl)pyrimidine-5-carboxamide hydrochloride] | ≥ 50
3 | C[C@@H]1CN(C(=O)Nc2ccc(OCCCCN3CCC(n4ccc5c(N6CCC(=O)NC6=O)cccc54)CC3)nc2)[C@@H](C)CN1c1ccc(C#N)c(Cl)c1 [EAR121, (2S,5R)-4-(3-chloro-4-cyanophenyl)-N-(6-(4-(4-(4-(2,4-dioxotetrahydropyrimidin-1(2H)-yl)-1H-indol-1-yl)piperidin-1-yl)butoxy)pyridin-3-yl)-2,5-dimethylpiperazine-1-carboxamide] | ≥ 50
4 | C[C@@H]1CN(c2ccc(C#N)c(Cl)c2)[C@@H](C)CN1C(=O)c1cnc(N2CCC(CN3CCC(n4ccc5c(N6CCC(=O)NC6=O)cncc54)CC3)CC2)cn1 [EAR147, 2-Chloro-4-((2S,5R)-4-(5-(4-((4-(4-(2,4-dioxotetrahydropyrimidin-1(2H)-yl)-1H-pyrrolo[2,3-c]pyridin-1-yl)piperidin-1-yl)methyl)piperidin-1-yl)pyrazine-2-carbonyl)-2,5-dimethylpiperazin-1-yl)benzonitrile] | ≥ 50
5 | CN(CCCN1CCC(n2ncc3c(N4CCC(=O)NC4=O)cccc32)CC1)c1ccc(C(=O)N[C@H]2CC[C@H](Oc3ccc(C#N)c(Cl)c3)CC2)nn1 [EAR151, N-((1r,4r)-4-(3-Chloro-4-cyanophenoxy)cyclohexyl)-6-((3-(4-(4-(2,4-dioxotetrahydropyrimidin-1(2H)-yl)-1H-indazol-1-yl)piperidin-1-yl)propyl)(methyl)amino)pyridazine-3-carboxamide, formic acid salt] | ≥ 50
6 | N#Cc1ccc(O[C@H]2CC[C@H](NC(=O)c3ccc(N4CCC(n5ccc6c(N7CCC(=O)NC7=O)cccc65)CC4)cc3)CC2)cc1Cl [EAR54, N-((1r,4r)-4-(3-Chloro-4-cyanophenoxy)cyclohexyl)-4-(4-(4-(2,4-dioxotetrahydropyrimidin-1(2H)-yl)-1H-indol-1-yl)piperidin-1-yl)benzamide] | ≥ 50
7 | CC1(C)[C@H](NC(=O)c2cnc(N3CCC(CN4CCC(n5ccc6c(N7CCC(=O)NC7=O)cccc65)CC4)CC3)nc2)C(C)(C)[C@H]1Oc1ccc(C#N)c(Cl)c1 [EAR11, N-((1r,3r)-3-(3-Chloro-4-cyanophenoxy)-2,2,4,4-tetramethylcyclobutyl)-2-(4-((4-(4-(2,4-dioxotetrahydropyrimidin-1(2H)-yl)-1H-indol-1-yl)piperidin-1-yl)methyl)piperidin-1-yl)pyrimidine-5-carboxamide] | ≥ 50
8 | C[C@@H]1CN(c2ccc(C#N)c(Cl)c2)[C@@H](C)CN1C(=O)c1ccc(N2CCC(CN3CCC(n4ncc5c(N6CCC(=O)NC6=O)cncc54)CC3)CC2)nn1 [EAR146, 2-Chloro-4-((2S,5R)-4-(6-(4-((4-(4-(2,4-dioxotetrahydropyrimidin-1(2H)-yl)-1H-pyrazolo[3,4-c]pyridin-1-yl)piperidin-1-yl)methyl)piperidin-1-yl)pyridazine-3-carbonyl)-2,5-dimethylpiperazin-1-yl)benzonitrile] | ≥ 50
9 | C[C@@H]1CN(C(=O)Nc2cnc(N3CCC(CN4CCC(n5ccc6c(N7CCC(=O)NC7=O)cccc65)CC4)CC3)nc2)[C@@H](C)CN1c1ccc(C#N)c(Cl)c1 [EAR116, (2S,5R)-4-(3-Chloro-4-cyanophenyl)-N-(2-(4-((4-(4-(2,4-dioxotetrahydropyrimidin-1(2H)-yl)-1H-indol-1-yl)piperidin-1-yl)methyl)piperidin-1-yl)pyrimidin-5-yl)-2,5-dimethylpiperazine-1-carboxamide] | ≥ 50

The remaining lines, values ahead:

Row | Dmax [%] | Compound
10 | ≥ 50 | C[C@H]1CN(c2ccc(C(=O)N[C@H]3CC[C@H](Oc4ccc(C#N)c(Cl)c4)CC3)nn2)CC[C@H]1CN1CCC(n2ncc3c(N4CCC(=O)NC4=O)cccc32)CC1 [EAR227, N-((1r,4R)-4-(3-chloro-4-cyanophenoxy)cyclohexyl)-6-((3R,4R)-4-((4-(4-(2,4-dioxotetrahydropyrimidin-1(2H)-yl)-1H-indazol-1-yl)piperidin-1-yl)methyl)-3-methylpiperidin-1-yl)pyridazine-3-carboxamide]
11 | ≥ 50 | CC1(CN2CCC(n3ncc4c(N5CCC(=O)NC5=O)cccc43)CC2)CCN(c2ccc(C(=O)N[C@H]3CC[C@H](Oc4ccc(C#N)c(Cl)c4)CC3)nn2)C1 (some centres unmarked) [EAR241, N-((1r,4r)-4-(3-chloro-4-cyanophenoxy)cyclohexyl)-6-(3-((4-(4-(2,4-dioxotetrahydropyrimidin-1(2H)-yl)-1H-indazol-1-yl)piperidin-1-yl)methyl)-3-methylpyrrolidin-1-yl)pyridazine-3-carboxamide]
12 | ≥ 50 | CC(C)n1ccc2c(N3CCC(=O)NC3=O)cc(C(=O)N(C)CC3CCN(CCCCOc4ccc(C(=O)N[C@H]5CC[C@H](Oc6ccc(C#N)c(Cl)c6)CC5)nc4)CC3)cc21 [EAR65, N-((1-(4-((6-(((1r,4r)-4-(3-Chloro-4-cyanophenoxy)cyclohexyl)carbamoyl)pyridin-3-yl)oxy)butyl)piperidin-4-yl)methyl)-4-(2,4-dioxotetrahydropyrimidin-1(2H)-yl)-1-isopropyl-N-methyl-1H-indole-6-carboxamide]
13 | ≥ 50 | N#Cc1ccc(O[C@H]2CC[C@H](NC(=O)c3ccc(N4CCC(CN5CCC(n6ccc7c(N8CCC(=O)NC8=O)nc(Cl)nc76)CC5)CC4)nn3)CC2)cc1Cl [EAR175, 6-(4-((4-(2-Chloro-4-(2,4-dioxotetrahydropyrimidin-1(2H)-yl)-7H-pyrrolo[2,3-d]pyrimidin-7-yl)piperidin-1-yl)methyl)piperidin-1-yl)-N-((1r,4r)-4-(3-chloro-4-cyanophenoxy)cyclohexyl)pyridazine-3-carboxamide]
14 | ≥ 50 | CC1CC(CN2CCC(n3ncc4c(N5CCC(=O)NC5=O)cccc43)CC2)CCN1c1ccc(C(=O)N[C@H]2CC[C@H](Oc3ccc(C#N)c(Cl)c3)CC2)nn1 (some centres unmarked) [EAR229]
15 | ≥ 50 | CC1(C)CC(CN2CCC(n3ncc4c(N5CCC(=O)NC5=O)cccc43)CC2)CN(c2ccc(C(=O)N[C@H]3CC[C@H](Oc4ccc(C#N)c(Cl)c4)CC3)nn2)C1 (some centres unmarked) [EAR223, N-((1r,4r)-4-(3-chloro-4-cyanophenoxy)cyclohexyl)-6-(5-((4-(4-(2,4-dioxotetrahydropyrimidin-1(2H)-yl)-1H-indazol-1-yl)piperidin-1-yl)methyl)-3,3-dimethylpiperidin-1-yl)pyridazine-3-carboxamide]
16 | ≥ 50 | N#Cc1ccc(O[C@H]2CC[C@H](NC(=O)c3ccc(N4CCC(CN5CCC(n6ccc7c(N8CCC(=O)NC8=O)cc(C(F)(F)F)cc76)CC5)CC4)nn3)CC2)cc1Cl [EAR176, N-((1r,4r)-4-(3-chloro-4-cyanophenoxy)cyclohexyl)-6-(4-((4-(4-(2,4-dioxotetrahydropyrimidin-1(2H)-yl)-6-(trifluoromethyl)-1H-indol-1-yl)piperidin-1-yl)methyl)piperidin-1-yl)pyridazine-3-carboxamide]
17 | ≥ 50 | N#Cc1ccc(O[C@H]2CC[C@H](NC(=O)c3ccc(N4CCC(CN5CCC(n6ccc7c(N8CCC(=O)NC8=O)cccc76)CC5)CC4)nn3)CC2)cc1C(F)(F)F [EAR24, N-((1r,4r)-4-(4-Cyano-3-(trifluoromethyl)phenoxy)cyclohexyl)-6-(4-((4-(4-(2,4-dioxotetrahydropyrimidin-1(2H)-yl)-1H-indol-1-yl)piperidin-1-yl)methyl)piperidin-1-yl)pyridazine-3-carboxamide]
18 | ≥ 50 | N#Cc1ccc(O[C@H]2CC[C@H](NC(=O)c3ccc(N4CC5(CCC(CN6CCC(n7ncc8c(N9CCC(=O)NC9=O)cccc87)CC6)CO5)C4)nn3)CC2)cc1Cl (some centres unmarked) [EAR218, N-((1r,4r)-4-(3-Chloro-4-cyanophenoxy)cyclohexyl)-6-(7-((4-(4-(2,4-dioxotetrahydropyrimidin-1(2H)-yl)-1H-indazol-1-yl)piperidin-1-yl)methyl)-5-oxa-2-azaspiro[3.5]nonan-2-yl)pyridazine-3-carboxamide]
19 | ≥ 50 | N#Cc1ccc(O[C@H]2CC[C@H](NC(=O)c3ccc(N4CCC(CN5CCC(n6ccc7c(N8CCC(=O)NC8=O)ncnc76)CC5)CC4)nn3)CC2)cc1Cl [EAR119, N-((1r,4r)-4-(3-Chloro-4-cyanophenoxy)cyclohexyl)-6-(4-((4-(4-(2,4-dioxotetrahydropyrimidin-1(2H)-yl)-7H-pyrrolo[2,3-d]pyrimidin-7-yl)piperidin-1-yl)methyl)piperidin-1-yl)pyridazine-3-carboxamide]
20 | ≥ 50 | N#Cc1ccc(O[C@H]2CC[C@H](NC(=O)c3ccc4c(c3)CN(C(=O)CN3CCC(n5ccc6c(N7CCC(=O)NC7=O)cccc65)CC3)C4)CC2)cc1Cl [AR6, N-((1r,4r)-4-(3-Chloro-4-cyanophenoxy)cyclohexyl)-2-(2-(4-(4-(2,4-dioxotetrahydropyrimidin-1(2H)-yl)-1H-indol-1-yl)piperidin-1-yl)acetyl)isoindoline-5-carboxamide]
